Measured values taken from patent US20190241573A1, “ISOQUINOLINE DERIVATIVES AS PERK INHIBITORS” (GlaxoSmithKline Intellectual Property Development Limited, priority 2016, published 2019).
Read-outs that look alike come from different tables or passages of the source.

Tests used:
GST-PERK enzyme = target: T1, GST-PERK enzyme (Homo sapiens, UniProt Q9NZJ5); test: PERK enzyme assay; type: biochemical; conditions: biotin-eIF2α substrate, 60 minutes
T1 sequence (Q9NZJ5 30-1116): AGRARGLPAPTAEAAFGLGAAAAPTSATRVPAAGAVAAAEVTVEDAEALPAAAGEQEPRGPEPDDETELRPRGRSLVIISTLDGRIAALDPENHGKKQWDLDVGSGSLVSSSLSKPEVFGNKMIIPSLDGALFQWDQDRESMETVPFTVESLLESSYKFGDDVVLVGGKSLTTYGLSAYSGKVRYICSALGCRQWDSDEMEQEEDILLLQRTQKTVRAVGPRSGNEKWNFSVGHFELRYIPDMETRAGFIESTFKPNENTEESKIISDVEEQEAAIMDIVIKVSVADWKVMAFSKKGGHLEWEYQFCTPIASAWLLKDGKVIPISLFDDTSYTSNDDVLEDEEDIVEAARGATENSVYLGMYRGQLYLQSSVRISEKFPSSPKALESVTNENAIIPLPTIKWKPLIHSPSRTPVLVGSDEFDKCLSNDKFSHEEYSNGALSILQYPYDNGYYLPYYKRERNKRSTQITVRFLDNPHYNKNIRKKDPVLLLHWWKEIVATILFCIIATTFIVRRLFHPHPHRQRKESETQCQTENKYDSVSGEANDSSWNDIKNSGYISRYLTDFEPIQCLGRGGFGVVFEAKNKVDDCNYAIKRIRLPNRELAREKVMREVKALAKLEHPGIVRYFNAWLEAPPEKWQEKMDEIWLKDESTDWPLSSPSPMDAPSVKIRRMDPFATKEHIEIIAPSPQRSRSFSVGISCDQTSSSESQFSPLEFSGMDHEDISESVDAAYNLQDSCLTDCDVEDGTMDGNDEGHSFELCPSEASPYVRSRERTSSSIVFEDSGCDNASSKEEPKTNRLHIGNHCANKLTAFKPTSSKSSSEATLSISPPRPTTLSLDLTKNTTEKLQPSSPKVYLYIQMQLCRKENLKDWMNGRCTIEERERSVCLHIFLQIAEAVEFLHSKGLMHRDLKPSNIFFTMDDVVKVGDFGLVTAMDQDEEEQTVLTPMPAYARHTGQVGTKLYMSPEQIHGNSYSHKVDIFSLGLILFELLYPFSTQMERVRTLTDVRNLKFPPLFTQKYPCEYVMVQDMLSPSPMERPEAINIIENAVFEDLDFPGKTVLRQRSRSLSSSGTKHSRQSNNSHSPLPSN
Procedure: Example 61: PERK Enzyme Assay
Compounds of the invention were assayed for PERK enzyme inhibitory activity with modifications to previously reported conditions (Axten et al. J. Med. Chem., 2012, 55, 7193-7207). Briefly, various concentrations of compounds (maximum 1% DMSO) were dispensed into 384-well plates containing GST-PERK enzyme. ATP and biotin-elF2α were added and after 60 minutes the reaction was quenched. After 2 hrs, a fluorescence plate reader was used to measure inhibition and pIC50s were calculated. The activity of compound 1 was determined at an ATP concentration=5 μM. For compounds 2-20 the PERK activity was determined at ATP concentration=500 μM ATP.

prion infected mice = conditions: cited from earlier work
[1] = 500 μM ATP, read-out: average PERK Enzyme (500 μM ATP) pIC50 (converted)

SMILES	IC50 (GST-PERK enzyme; [1])	also measured
Cn1cc(-c2ccc3cc(Cc4ccccc4)ncc3c2)c2c(N)ncnc21 [Example 1, 5-(3-Benzylisoquinolin-7-yl)-7-methyl-7H-pyrrolo[2,3-d]pyrimidin-4-amine]		IC50 (GST-PERK enzyme; 5 μM ATP, read-out: average PERK Enzyme (5 μM ATP) pIC50 (converted)): 15.8 nM
Cn1cc(-c2ccc3cc(Cc4cc(F)cc(F)c4)ncc3c2F)c2c(N)ncnc21 [Example 4, 5-(3-(3,5-Difluorobenzyl)-8-fluoroisoquinolin-7-yl)-7-methyl-7H-pyrrolo[2,3-d]pyrimidin-4-amine]	251 nM	
CCn1cc(-c2ccc3cc(Cc4cc(F)cc(F)c4)ncc3c2F)c2c(N)ncnc21 [Example 6, 5-(3-(3,5-difluorobenzyl)-8-fluoroisoquinolin-7-yl)-7-ethyl-7H-pyrrolo[2,3-d]pyrimidin-4-amine]	158 nM	
Cc1cc(C)cc(C(=O)c2cc3ccc(-c4cn(C)c5ncnc(N)c45)cc3cn2)c1 [Example 15, (7-(4-amino-7-methyl-7H-pyrrolo[2,3-d]pyrimidin-5-yl)isoquinolin-3-yl)(3,5-dimethylphenyl)methanone]	> 3980 nM	
Cn1cc(-c2ccc3cc(Cc4cc(F)ccc4F)ncc3c2F)c2c(N)ncnc21 [Example 17, 5-(3-(2,5-difluorobenzyl)-8-fluoroisoquinolin-7-yl)-7-methyl-7H-pyrrolo[2,3-d]pyrimidin-4-amine]	1000 nM	
Cn1cc(-c2ccc3cc(Cc4cc(F)cc(C(F)(F)F)c4)ncc3c2F)c2c(N)ncnc21 [Example 18, 5-(8-fluoro-3-(3-fluoro-5-(trifluoromethyl)benzyl)isoquinolin-7-yl)-7-methyl-7H-pyrrolo[2,3-d]pyrimidin-4-amine]	> 3980 nM	
Cn1cc(-c2ccc3cc(Cc4cccc(C(F)(F)F)c4)ncc3c2F)c2c(N)ncnc21 [Example 19, 5-(8-fluoro-3-(3-(trifluoromethyl)benzyl)isoquinolin-7-yl)-7-methyl-7H-pyrrolo[2,3-d]pyrimidin-4-amine]	> 3980 nM	
Nc1ncnc2c1c(-c1ccc3cc(Cc4cc(F)cc(F)c4)ncc3c1F)cn2CC(F)(F)F [Example 23, 5-(3-(3,5-difluorobenzyl)-8-fluoroisoquinolin-7-yl)-7-(2,2,2-trifluoroethyl)-7H-pyrrolo[2,3-d]pyrimidin-4-amine]	> 3980 nM	
Cc1nc(N)c2c(-c3ccc4cc(Cc5cc(F)cc(F)c5)ncc4c3F)cn(C)c2n1 [Example 25, 5-(3-(3,5-difluorobenzyl)-8-fluoroisoquinolin-7-yl)-2,7-dimethyl-7H-pyrrolo[2,3-d]pyrimidin-4-amine]	> 3980 nM	
Cc1nc(N)c2c(-c3ccc4cc(Cc5cc(F)cc(F)c5)ncc4c3F)cn(C3CC3)c2n1 [Example 28, 7-cyclopropyl-5-(3-(3,5-difluorobenzyl)-8-fluoroisoquinolin-7-yl)-2-methyl-7H-pyrrolo[2,3-d]pyrimidin-4-amine]	2510 nM	
Nc1ncnc2c1c(-c1ccc3cc(Cc4cc(F)cc(F)c4)ncc3c1F)nn2C1CC1 [Example 29, 1-cyclopropyl-3-(3-(3,5-difluorobenzyl)-8-fluoroisoquinolin-7-yl)-1H-pyrazolo[3,4-d]pyrimidin-4-amine]	> 3980 nM	
Cc1ccccc1Cc1cc2ccc(-c3cn(C4CC4)c4ncnc(N)c34)c(F)c2cn1 [Example 38, 7-cyclopropyl-5-(8-fluoro-3-(2-methylbenzyl)isoquinolin-7-yl)-7H-pyrrolo[2,3-d]pyrimidin-4-amine]	12.6 nM	
Nc1ncnc2c1c(-c1ccc3cc(Cc4cc(C(F)(F)F)ccc4F)ncc3c1F)cn2C1CC1 [Example 41, 7-cyclopropyl-5-(8-fluoro-3-(2-fluoro-5-(trifluoromethyl)benzyl)isoquinolin-7-yl)-7H-pyrrolo[2,3-d]pyrimidin-4-amine]	100 nM	
CN(C)CCn1cc(-c2ccc3cc(Cc4cc(F)cc(F)c4)ncc3c2F)c2c(N)ncnc21 [Example 47, 5-(3-(3,5-difluorobenzyl)-8-fluoroisoquinolin-7-yl)-7-(2-(dimethylamino)ethyl)-7H-pyrrolo[2,3-d]pyrimidin-4-amine]	1580 nM	
Nc1ncnc2c1c(-c1ccc3cc(Cc4cccc(Cl)c4F)ncc3c1F)cn2C1CC1 [Example 51, 5-(3-(3-chloro-2-fluorobenzyl)-8-fluoroisoquinolin-7-yl)-7-cyclopropyl-7H-pyrrolo[2,3-d]pyrimidin-4-amine]	3.16 nM	
Nc1ncnc2c1c(-c1ccc3cc(Cc4cncc(F)c4)ncc3c1F)cn2C1CC1 [Example 53, 7-cyclopropyl-5-(8-fluoro-3-((5-fluoropyridin-3-yl)methyl)isoquinolin-7-yl)-7H-pyrrolo[2,3-d]pyrimidin-4-amine]	631 nM	
Nc1ncnn2ccc(-c3ccc4cc(Cc5cc(F)cc(F)c5)ncc4c3F)c12 [Example 58, 5-(3-(3,5-difluorobenzyl)-8-fluoroisoquinolin-7-yl)pyrrolo[2,1-f][1,2,4]triazin-4-amine]	> 3980 nM	
Cn1cc(-c2ccc3c(c2)CCN3C(=O)Cc2cccc(C(F)(F)F)c2)c2c(N)ncnc21 [GSK2606414, 7-methyl-5-(1-{[3-(trifluoromethyl)phenyl]acetyl}-2,3-dihydro-1H-indol-5-yl)-7H-pyrrolo[2,3-d]pyrimidin-4-amine]		neuroprotective effect and clinical signs of disease (prion infected mice): provide a neuroprotective effect and prevent clinical signs of disease
